The test system of one assay is Trypanosoma cruzi. Nature of the assay: Antitrypanosomal activity against Trypanosoma cruzi Y blood stream trypomastigotes after 24 hrs. The assay is classed as functional, organism-based.
The test system of the next assay is PBMC. Nature of the assay: Cytotoxicity against human PBMC after 72 hrs by alamar blue assay. Type of assay: cell-based. On the technique in general: The colour change of resazurin is a common sign of viable cells or microbes.

What is called IC50 is the concentration needed to halve the response being measured. Read a low IC50 as greater potency in that assay.

SMILES strings stand for the structures.

As for `CC1(C)OC2=C(C(=O)C(=O)c3ccccc32)[C@H](n2cc(-c3ccccc3)nn2)[C@H]1Br`, the IC50 amounted to 313 µM in the assay on Trypanosoma cruzi and 2.1 µM in the assay with PBMC.

With `Cc1ccc([N+](=O)[O-])cc1NC1C2=C(OC1(C)C)c1ccccc1C(=O)C2=O` (configuration not stated), the IC50 in the assay with Trypanosoma cruzi came to 284 µM; in the assay on PBMC, 12 µM.

On to `Cc1cc([N+](=O)[O-])ccc1NC1C2=C(OC1(C)C)c1ccccc1C(=O)C2=O` (configuration not stated), for which the IC50 was 156 µM with Trypanosoma cruzi and 2.1 µM in the assay on PBMC.

For `O=C1c2ccccc2C(=O)c2c1ccc1nc(-c3ccc(-c4ccccc4)cc3)[nH]c21`, the IC50 with Trypanosoma cruzi was above 4000 µM; in the assay with PBMC, 12 µM.

In the case of `COc1ccc(-c2cn([C@H]3C4=C(OC(C)(C)[C@@H]3Br)c3ccccc3C(=O)C4=O)nn2)cc1`, the IC50 came out at 106 µM in the assay on Trypanosoma cruzi and 2.1 µM in the assay on PBMC.

Regarding `O=C1c2ccccc2C(=O)c2c1ccc1nc(-c3ccccc3)[nH]c21`, the figures for the IC50 in the assay on Trypanosoma cruzi and in the assay with PBMC were above 2000 µM and 12 µM, respectively.

As to `COc1ccc(NC2C3=C(OC2(C)C)c2ccccc2C(=O)C3=O)c([N+](=O)[O-])c1` (configuration not stated), the IC50 in the assay on Trypanosoma cruzi came out at 59.6 µM; in the assay with PBMC, 2.1 µM.

Take `CC1(C)OC2=C(C(=O)C(=O)c3ccccc32)C1OC1CCCCC1` (configuration not stated): the IC50 in the assay on Trypanosoma cruzi turned out to be 558 µM; with PBMC, 2.1 µM.

For the molecule `CC1(C)CC2=C(O1)c1ccccc1C(=O)C2=O` [NOR-BETA-LAPACHONE], the IC50 is above 4800 µM with Trypanosoma cruzi and 2.1 µM with PBMC.

For `O=C1c2ccccc2C(=O)c2c1ccc1nc(-c3cccc4ccccc34)[nH]c21`, the IC50 was above 4000 µM in the assay with Trypanosoma cruzi and 2.1 µM in the assay on PBMC.

As to `CC1(C)OC2=C(C(=O)C(=O)c3ccccc32)C1Nc1ccc(F)c([N+](=O)[O-])c1` (configuration not stated), the midpoint of inhibition in the assay with Trypanosoma cruzi, the IC50, lay at 526 µM.

With `CC(C)COC1C2=C(OC1(C)C)c1ccccc1C(=O)C2=O` (configuration not stated), the IC50 worked out at 47.2 µM in the assay with Trypanosoma cruzi and 2.1 µM in the assay with PBMC.

Take `CC1(C)OC2=C(C(=O)C(=O)c3ccccc32)[C@H](n2cc(-c3ccc(Br)cc3)nn2)[C@H]1Br`: the IC50 with Trypanosoma cruzi stood at 440 µM; in the assay on PBMC, 2.1 µM.

`CC1(C)OC2=C(C(=O)c3ccccc3C2=O)[C@@H](N=[N+]=[N-])[C@@H]1Br`: the values for the IC50 with Trypanosoma cruzi and with PBMC were 248 µM and 2.1 µM, respectively.

As to `Cc1ccc(-c2nc3ccc4c(c3[nH]2)C(=O)c2ccccc2C4=O)cc1`, the half-maximal inhibitory concentration (IC50) in the assay on Trypanosoma cruzi was above 4000 µM; in the assay on PBMC, 12 µM.

`CC1(C)OC2=C(C(=O)C(=O)c3ccccc32)[C@H](N=[N+]=[N-])[C@H]1Br`: the IC50 was determined as 23.4 µM in the assay with Trypanosoma cruzi and 2.1 µM in the assay on PBMC.

Regarding `CC1(C)OC2=C(C(=O)C(=O)c3ccccc32)C1Nc1ccc(Cl)c(Cl)c1` (configuration not stated), the IC50 was found to be 43.8 µM in the assay with Trypanosoma cruzi and 2.1 µM with PBMC.

Consider `CC1(C)OC2=C(C(=O)C(=O)c3ccccc32)C1Nc1ccc(Br)cc1Br` (configuration not stated), for which the IC50 in the assay with Trypanosoma cruzi was found to be 24.9 µM; in the assay with PBMC, 2.1 µM.

Consider `CC1(C)CCC2=C(O1)c1ccccc1C(=O)C2=O` [LAPACHONE], for which the IC50 in the assay with Trypanosoma cruzi came out at 392 µM; with PBMC, 2.1 µM.

For the molecule `CC(C)=CCC1=C(O)C(=O)c2ccccc2C1=O` [LAPACHOL], the IC50 in the assay on PBMC is 2.1 µM. That is a single-digit micromolar value.

Consider `CC(C)=CC1=C(O)C(=O)c2ccccc2C1=O`, for which the IC50 with PBMC is 2.1 µM.

Regarding `CC1(C)OC2=C(C(=O)C(=O)c3ccccc32)[C@H](n2cc(-c3ccc(F)cc3)nn2)[C@H]1Br`, the IC50 in the assay on Trypanosoma cruzi amounted to 220 µM; in the assay with PBMC, 2.1 µM.

`CC(C)=CCC1=C(OC2(CC=C(C)C)C(=O)C(=O)c3ccccc3C2=O)C(=O)c2ccccc2C1=O` (configuration not stated): the IC50 came to 233 µM in the assay on Trypanosoma cruzi and 12 µM in the assay with PBMC.

Take `CC1(C)OC2=C(C(=O)C(=O)c3ccccc32)C1Nc1ccccc1[N+](=O)[O-]` (configuration not stated): the IC50 with Trypanosoma cruzi came to 55.6 µM; in the assay with PBMC it was 2.1 µM.

On to `CC(C)OC1C2=C(OC1(C)C)c1ccccc1C(=O)C2=O` (configuration not stated), for which the IC50 in the assay with Trypanosoma cruzi came to 268 µM; in the assay with PBMC, 2.1 µM.
